Each structure is given as a SMILES string. Some results are limits rather than exact numbers.

Drawing on US20210024490A1, “METHOD FOR THE PREPARATION OF THE METABOLITES OF (4S)- AND (4R)-4-(4-CYANO-2-METHOXYPHENYL)-5-ETHOXY-2,8-DIMETHYL-1,4-DIHYDRO-1,6-NAPHTHYRIDINE-3-CARBOXAMIDE AND THE USE THEREOF” (Bayer Pharma Aktiengesellschaft, priority 2015, published 2021), this text covers IC50 and main metabolites formed for 4 molecules.

Series [1] deals with T1, human mineralocorticoid receptor (MR) (Homo sapiens, UniProt P08235).
T1 construct: expressed in transfected cells; host or cells: CHO K1 (Chinese hamster ovary), stably transfected
T1 sequence (P08235 734-984 limits assumed): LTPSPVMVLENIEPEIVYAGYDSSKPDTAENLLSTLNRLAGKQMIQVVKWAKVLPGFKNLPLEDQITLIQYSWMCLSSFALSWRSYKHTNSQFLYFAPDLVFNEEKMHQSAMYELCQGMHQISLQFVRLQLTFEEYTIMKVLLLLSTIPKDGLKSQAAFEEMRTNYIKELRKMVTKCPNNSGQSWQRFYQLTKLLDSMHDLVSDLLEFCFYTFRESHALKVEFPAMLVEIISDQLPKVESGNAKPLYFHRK
The series is described as follows: Cellular in vitro assay to determine the inhibitory MR activity (GAL4-steroid hormone receptor chimera, luciferase reporter, CHO K1 cells). The following applies: antagonism of aldosterone-stimulated GAL4-MR chimera. The series is classed as cell-based. The source says:
B-1. Cellular In Vitro Assay to Determine the Inhibitory MR Activity and MR Selectivity Compared with Other Steroid Hormone Receptors
Antagonists of the human mineralocorticoid receptor (MR) are identified, and the efficacy of the compounds described herein is quantified with the aid of a recombinant cell line. The cell is originally derived from a hamster ovary epithelial cell (Chinese Hamster Ovary, CHO K1, ATCC: American Type Culture Collection, VA 20108, USA).
An established chimera system in which the ligand-binding domains of human steroid hormone receptors are fused to the DNA-binding domain of the yeast transcription factor GAL4 is used in this CHO K1 cell line. The GAL4-steroid hormone receptor chimeras produced in this way are cotransfected and stably expressed with a reporter construct in the CHO cells.
To generate the GAL4-steroid hormone receptor chimeras, the GAL4 DNA-binding domain (amino acids 1-147) from the vector pFC2dbd (from Stratagene) is cloned with the PCR-amplified ligand-binding domains of the mineralocorticoid receptor (MR, amino acids 734-985), of the glucocorticoid receptor (GR, amino acids 443-777), of the progesterone receptor (PR, amino acids 680-933) and of the androgen receptor (AR, amino acids 667-919) into the vector pIRES2 (from Clontech). […]
The MR cells are plated out in medium (Optimem, 2.5% FCS, 2 mM glutamine, 10 mM HEPES) in 96-well (or 384- or 1536-well) microliter plates the day before the assay, and are kept in a cell incubator (96% air humidity, 5% v/v CO2, 37° C.). […] After a further incubation time of 5 to 6 hours, the luciferase activity is measured with the aid of a video camera. The relative light units measured give a sigmoidal stimulation curve as a function of the substance concentration. The IC50 values (in mol) are calculated with the aid of the computer program GraphPad PRISM (Version 3.02).
In general terms: In a reporter assay the amount or activity of a reporter protein is the signal.

On the set-up of series [2]: species or system humans. The following applies: dog, rat, mouse, human, in vivo. The source says:
For pharmacokinetic measurements, standards of very high quality had to be prepared in order to be able to carry out reliable quantification. From the structural elucidation of the metabolites (via MS of the serum of various animal species and humans) obtained after administration of (4 S)-4-(4-cyano-2-methoxyphenyl)-5-ethoxy-2,8-dimethyl-1,4-dihydro-1,6-naphthyridine-3-carboxamide of the formula 4S (I), the following 6 main metabolites were found (the absolute stereochemistry of the atropisomers can be assigned according to the Cahn-Ingold-Prelog convention and is specified in parentheses):
If the R enantiomer 4R (I) is used, […]

Consider `CCOc1ncc(C)c2nc(C)c(C(N)=O)c(-c3ccc(C#N)cc3OC)c12` (single isomer, unassigned) [M1a (S)], for which the IC50 – broadly, the concentration that inhibits the measured activity by half – in series [1] turned out to be 9.33 µM.

On to `CCOc1ncc(C)c2c1[C@H](c1ccc(C#N)cc1OC)C(C(N)=O)=C(C)N2` [Compound of the formula (I), (4S)-4-(4-cyano-2-methoxyphenyl)-5-ethoxy-2,8-dimethyl-1,4-dihydro-1,6-naphthyridine-3-carboxamide], for which the main metabolites formed entry in series [2] is “metabolized mainly to M1a (S) and the subsequent metabolites M2a (S) and M3a (S)”. Moreover, the half-inhibitory concentration (IC50) in series [1] stood at 0.0277 µM. Turning to `CCOc1ncc(C)c2c1[C@@H](c1ccc(C#N)cc1OC)C(C(N)=O)=C(C)N2` [4R (I), (4R)-4-(4-cyano-2-methoxyphenyl)-5-ethoxy-2,8-dimethyl-1,4-dihydro-1,6-naphthyridine-3-carboxamide], the main metabolites formed entry in series [2] was “the metabolites of the b series are principally formed, i.e. M1b (R), M2b (R) and M3b (R)”.

The molecule `CCOc1ncc(C)c2nc(C)c(C(N)=O)c(-c3ccc(C#N)cc3OC)c12` (single isomer, unassigned) [M1b (R)] displayed an IC50 in series [1] above 10 µM.
